Results from US20130209551A1, “PENTAPEPTIDE DERIVATIVES FOR PROMOTING HAIR GROWTH” (priority 2010, published 2013).
*: point of attachment. Biotin = O=C1N[C@H]2[C@H](CS[C@H]2CCCCC(=O)*)N1

System: hair bulb keratinocytes
Assay: Detection of the hair bulb keratinocyte proliferation (test of Biol. Pharm. Bull., 28(3), 485-489, (2005))
Format: cell-based
Conditions: relative to unsubstituted pentapeptide Gly-Pro-Ile-Gly-Ser
Excerpt: In the test as described in Biol. Pharm.

5-[(3aS,4S,6aR)-2-oxo-hexahydro-1H-thieno[3,4-d]imidazol-4-yl]pentanoyl-Gly-Pro-Ile-Gly-Ser-OH (Biotin-GPIGS-OH; SMILES CC[C@H](C)[C@H](NC(=O)[C@@H]1CCCN1C(=O)CNC(=O)CCCC[C@@H]1SC[C@@H]2NC(=O)N[C@@H]21)C(=O)NCC(=O)N[C@@H](CO)C(=O)O) [No. 9]
keratinocyte growth test result, value superior in comparison with the corresponding value for Gly-Pro-Ile-Gly-Ser: 53%
